For this assay, the system named is A549 cells (human Non Small Cell Lung Cancer). Briefly: cytotoxicity assay with A549 cells using standard Alamar Blue Assay. The following applies: for cell vitality: A549 cells, 48 h incubation, Alamar Blue, versus control cells, L-Glutamate at 2 mM. A general note: Resazurin is reduced to fluorescent resorufin, in cell work by metabolically active cells.

pEC50: −log10 of the molar value. Counter-ions that a name gives are not always drawn.

Experimental: A Dulbecco's modified Eagle's Medium (Sigma D0422), supplemented with Glutamine and 10% foetal calf serum (FCS) were used as incubation buffer. The cells were incubated for 48 h with test compounds and investigated according to manufacturer's protocol.
Afterwards, cell vitality was measured with the Alamar Blue assay kit as described above.

As to `N[C@@H](C[C@H](CCCF)C(=O)O)C(=O)O` [Example 1], the cell vitality entry was “strong decrease of the cell vitality”. For the same compound, the pEC50 (Homo sapiens, A549, read-out: EC50 (cell vitality)) is about 4.42. Turning to `N[C@@H](CCC(=O)O)C(=O)O` [L-Glutamate, reference compound], the cell vitality result was “no differences in cell vitality”. With `N[C@@H](C[C@H](Cc1cc(C(F)(F)F)ccc1F)C(=O)O)C(=O)O` [Example 5, Neutral sodium salt of (2S,4S)-2-Amino-4-(2-fluoro-5-trifluoromethyl-benzyl)-pentane dioic acid], the cell vitality result was “strong decrease of the cell vitality”.

In general, pEC50 refers to the negative decadic logarithm of the EC50, by convention in mol/L.

The values are drawn from patent US20140227191A1, “L-GLUTAMIC ACID AND L-GLUTAMINE DERIVATIVE (III), USE THEREOF AND METHOD FOR OBTAINING THEM” (BAYER SCHERING PHARMA AKTIENGESELLSCHAFT, priority 2008, published 2014).
